Results: PubChem BioAssay (NCI)
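Protocol summary: plate cells (96-well), add compound at 5 concentrations, incubate 48 h, interpolate endpoints linearly. The concentration for 50% growth inhibition is given as GI50. The concentration for full growth arrest is given as TGI.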

Experiments:
Assay in all cases: inhibition of tumour cell growth, NCI panel, 48 h
786-0 renal = test system: 786-0 renal
A498 renal = test system: A498 renal
A549 NSCLC = test system: A549 NSCLC
ACHN renal = test system: ACHN renal
BT-549 breast = test system: BT-549 breast
CAKI-1 renal = test system: CAKI-1 renal
CCRF-CEM leukemia = test system: CCRF-CEM leukemia
COLO 205 colon = test system: COLO 205 colon
DU-145 prostate = test system: DU-145 prostate
EKVX NSCLC = test system: EKVX NSCLC
HCC-2998 colon = test system: HCC-2998 colon
HCT-116 colon = test system: HCT-116 colon
HCT-15 colon = test system: HCT-15 colon
HL-60(TB) leukemia = test system: HL-60(TB) leukemia
HOP-62 NSCLC = test system: HOP-62 NSCLC
HOP-92 NSCLC = test system: HOP-92 NSCLC
HS 578T breast = test system: HS 578T breast
HT29 colon = test system: HT29 colon
IGROV1 ovarian = test system: IGROV1 ovarian
K-562 leukemia = test system: K-562 leukemia
KM12 colon = test system: KM12 colon
LOX IMVI melanoma = test system: LOX IMVI melanoma
M14 melanoma = test system: M14 melanoma
MALME-3M melanoma = test system: MALME-3M melanoma
MCF7 breast = test system: MCF7 breast
MDA-MB-231 breast = test system: MDA-MB-231 breast
MDA-MB-435 = test system: MDA-MB-435
MDA-MB-468 breast = test system: MDA-MB-468 breast
MOLT-4 leukemia = test system: MOLT-4 leukemia
NCI-H226 lung = test system: NCI-H226 lung
NCI-H23 lung = test system: NCI-H23 lung
NCI-H460 lung = test system: NCI-H460 lung
NCI-H522 lung = test system: NCI-H522 lung
NCI/ADR-RES ovarian = test system: NCI/ADR-RES ovarian
OVCAR-3 ovarian = test system: OVCAR-3 ovarian
OVCAR-4 ovarian = test system: OVCAR-4 ovarian
OVCAR-5 ovarian = test system: OVCAR-5 ovarian
OVCAR-8 ovarian = test system: OVCAR-8 ovarian
PC-3 prostate = test system: PC-3 prostate
RPMI-8226 leukemia = test system: RPMI-8226 leukemia
RXF 393 renal = test system: RXF 393 renal
SF-268 CNS = test system: SF-268 CNS
SF-295 CNS = test system: SF-295 CNS
SF-539 CNS = test system: SF-539 CNS
SK-MEL-2 melanoma = test system: SK-MEL-2 melanoma
SK-MEL-28 melanoma = test system: SK-MEL-28 melanoma
SK-MEL-5 melanoma = test system: SK-MEL-5 melanoma
SK-OV-3 ovarian = test system: SK-OV-3 ovarian
SN12C renal = test system: SN12C renal
SNB-19 CNS = test system: SNB-19 CNS
SNB-75 CNS = test system: SNB-75 CNS
SW-620 colon = test system: SW-620 colon
T-47D breast = test system: T-47D breast
TK-10 renal = test system: TK-10 renal
U251 CNS = test system: U251 CNS
UACC-257 melanoma = test system: UACC-257 melanoma
UACC-62 melanoma = test system: UACC-62 melanoma
UO-31 renal = test system: UO-31 renal

Structure (SMILES): C=C1CCC2C3(C)COC(c4ccccc4)OC3CCC2(C)C1CC(Sc1ccccc1)C1=CCOC1=O (stereo unspecified)
- GI50 (786-0 renal): 14.4 µM
- TGI (786-0 renal): 40.5 µM
- GI50 (A498 renal): > 100 µM
- TGI (A498 renal): > 100 µM
- GI50 (A549 NSCLC): 13.1 µM
- TGI (A549 NSCLC): > 100 µM
- GI50 (ACHN renal): 12.7 µM
- TGI (ACHN renal): > 100 µM
- GI50 (BT-549 breast): 2170 nM
- TGI (BT-549 breast): 9.12 µM
- GI50 (CAKI-1 renal): 18.6 µM
- TGI (CAKI-1 renal): > 100 µM
- GI50 (CCRF-CEM leukemia): 2350 nM
- TGI (CCRF-CEM leukemia): 8.71 µM
- GI50 (COLO 205 colon): 20.3 µM
- TGI (COLO 205 colon): 46.8 µM
- GI50 (DU-145 prostate): 18.5 µM
- TGI (DU-145 prostate): > 100 µM
- GI50 (EKVX NSCLC): 5.77 µM
- TGI (EKVX NSCLC): 95.5 µM
- GI50 (HCC-2998 colon): 22.3 µM
- TGI (HCC-2998 colon): > 100 µM
- GI50 (HCT-116 colon): 3.52 µM
- TGI (HCT-116 colon): 15.5 µM
- GI50 (HCT-15 colon): 5.12 µM
- TGI (HCT-15 colon): 45 µM
- GI50 (HL-60(TB) leukemia): 2660 nM
- TGI (HL-60(TB) leukemia): 8.66 µM
- GI50 (HOP-62 NSCLC): 72.2 µM
- TGI (HOP-62 NSCLC): > 100 µM
- GI50 (HOP-92 NSCLC): 6.54 µM
- TGI (HOP-92 NSCLC): 41.9 µM
- GI50 (HS 578T breast): 37 µM
- TGI (HS 578T breast): > 100 µM
- GI50 (HT29 colon): 5.8 µM
- TGI (HT29 colon): 39.7 µM
- GI50 (IGROV1 ovarian): 17.3 µM
- TGI (IGROV1 ovarian): > 100 µM
- GI50 (K-562 leukemia): 3.88 µM
- TGI (K-562 leukemia): > 100 µM
- GI50 (KM12 colon): 11.7 µM
- TGI (KM12 colon): > 100 µM
- GI50 (LOX IMVI melanoma): 3.43 µM
- TGI (LOX IMVI melanoma): 14.3 µM
- GI50 (M14 melanoma): 9.87 µM
- TGI (M14 melanoma): 35 µM
- GI50 (MALME-3M melanoma): 27.9 µM
- TGI (MALME-3M melanoma): > 100 µM
- GI50 (MCF7 breast): 3.42 µM
- TGI (MCF7 breast): > 100 µM
- GI50 (MDA-MB-231 breast): 13.7 µM
- TGI (MDA-MB-231 breast): 49 µM
- GI50 (MDA-MB-435): 7.09 µM
- TGI (MDA-MB-435): 35.4 µM
- GI50 (MDA-MB-468 breast): 4.8 µM
- TGI (MDA-MB-468 breast): 26.4 µM
- GI50 (MOLT-4 leukemia): 2970 nM
- TGI (MOLT-4 leukemia): > 100 µM
- GI50 (NCI-H226 lung): 6.32 µM
- TGI (NCI-H226 lung): 42.4 µM
- GI50 (NCI-H23 lung): 25.7 µM
- TGI (NCI-H23 lung): > 100 µM
- GI50 (NCI-H460 lung): 17.4 µM
- TGI (NCI-H460 lung): > 100 µM
- GI50 (NCI-H522 lung): 10.4 µM
- TGI (NCI-H522 lung): 22.8 µM
- GI50 (NCI/ADR-RES ovarian): 4.78 µM
- TGI (NCI/ADR-RES ovarian): 26.4 µM
- GI50 (OVCAR-3 ovarian): 3.66 µM
- TGI (OVCAR-3 ovarian): 13.1 µM
- GI50 (OVCAR-4 ovarian): 25.5 µM
- TGI (OVCAR-4 ovarian): > 100 µM
- GI50 (OVCAR-5 ovarian): 25.9 µM
- TGI (OVCAR-5 ovarian): > 100 µM
- GI50 (OVCAR-8 ovarian): 4.98 µM
- TGI (OVCAR-8 ovarian): 29 µM
- GI50 (PC-3 prostate): 5.88 µM
- TGI (PC-3 prostate): > 100 µM
- GI50 (RPMI-8226 leukemia): 2590 nM
- TGI (RPMI-8226 leukemia): 7.84 µM
- GI50 (RXF 393 renal): 6.61 µM
- TGI (RXF 393 renal): 43 µM
- GI50 (SF-268 CNS): 48.6 µM
- TGI (SF-268 CNS): > 100 µM
- GI50 (SF-295 CNS): 21.3 µM
- TGI (SF-295 CNS): > 100 µM
- GI50 (SF-539 CNS): 6.82 µM
- TGI (SF-539 CNS): 20.8 µM
- GI50 (SK-MEL-2 melanoma): 6.22 µM
- TGI (SK-MEL-2 melanoma): 21.9 µM
- GI50 (SK-MEL-28 melanoma): 27.2 µM
- TGI (SK-MEL-28 melanoma): > 100 µM
- GI50 (SK-MEL-5 melanoma): 10.9 µM
- TGI (SK-MEL-5 melanoma): 23.4 µM
- GI50 (SK-OV-3 ovarian): > 100 µM
- TGI (SK-OV-3 ovarian): > 100 µM
- GI50 (SN12C renal): 10.4 µM
- TGI (SN12C renal): > 100 µM
- GI50 (SNB-19 CNS): 45.1 µM
- TGI (SNB-19 CNS): > 100 µM
- GI50 (SNB-75 CNS): 1710 nM
- TGI (SNB-75 CNS): > 100 µM
- GI50 (SW-620 colon): 3.31 µM
- TGI (SW-620 colon): > 100 µM
- GI50 (T-47D breast): 5.2 µM
- TGI (T-47D breast): > 100 µM
- GI50 (TK-10 renal): 76.1 µM
- TGI (TK-10 renal): > 100 µM
- GI50 (U251 CNS): 9.9 µM
- TGI (U251 CNS): 26.5 µM
- GI50 (UACC-257 melanoma): 33.6 µM
- TGI (UACC-257 melanoma): > 100 µM
- GI50 (UACC-62 melanoma): 10.3 µM
- TGI (UACC-62 melanoma): 27.7 µM
- GI50 (UO-31 renal): 6.36 µM
- TGI (UO-31 renal): > 100 µM
